Structures can show the parent of a compound that is named as a salt.
What was measured:
Assay type in all cases: cell-based
Arg261Gln (R261Q) PAH [1] = molecular target: T1, Arg261Gln (R261Q) PAH (Homo sapiens (Human), UniProt P00439, R261Q); test: Phenylalanine hydroxylase residual protein amount (dot blot, COS-7 lysates); settings: COS-7, 48 h, COS-7 cells, compound 10 μM (sepiapterin 5 μM), read-out: PAH protein level (immune blot signal) R261Q PAH Mean
Description: (§1) 3. Phenylalanine Hydroxylase Residual Protein Amount
(§2) The analysis of the residual PAH protein amount was based on the method described in Gersting S. W. et al., Human Molecular Genetics, 2010, 19(10), 2039-2049 with modifications.
(§3) Detection of the residual PAH protein amount was performed as a dot blot using the lysates obtained from the cell culture where transiently transfected COS-7 cells (with wild-type PAH or PAH variant) were exposed for 48 h to compounds. The experiment was carried out from the same samples as used for measuring enzyme activities.
(§4) 2 μl of the lysate were dropped onto the nitrocellulose membrane. The membrane was allowed to air dry at room temperature for 30 min followed by 40 min blocking in 5% milk in TBS-Tween (room temperature). The membrane was incubated with the mouse monoclonal primary antibody specific for PAH (Millipore, Cat. No. MAB5278, 1:1000 dilution in 5% milk in TBS-Tween) for overnight at 4° C. Next, the membrane was washed (3×10 min in TBS-Tween) and incubated with the secondary HRP-conjugated antibody (anti-mouse antibody; Santa Cruz Biotechnology, Inc., Cat. No. sc-2005; 1:1000 dilution in 5% milk in TBS-Tween) followed by thorough washing in TBS-Tween (3×10 min) and distilled water (1×10 min). Blots were visualized with Pierce™ ECL substrate (ThermoFisher Scientific, Cat No. 32106) and chemiluminescence was monitored with a DIANA III Imaging system or ChemiDoc™ MP Imaging System (BioRad). To analyze the compound effect on the PAH protein amount densitometry analysis was performed using ImageJ Software.
(§5) The effect of compound on PAH protein amount was calculated from triplicates. As for determination of the enzyme activity the background of the not transfected cells (NT) was subtracted from the transfected cells (NCC or compound treated). In the next step delta of the NCC versus compound treated cells was calculated. Residual protein amount greater than 100% represents an increase in the stability of the enzyme with respect to NCC.

wild-type PAH [2] = molecular target: T2, wild-type PAH (Homo sapiens (Human), UniProt P00439); test: as above; settings: COS-7, 48 h, COS-7 cells, compound 10 μM (sepiapterin 5 μM), read-out: PAH protein level (immune blot signal) WT PAH Mean
Description: as §1, §2, §3, §4, §5

Arg261Gln (R261Q) PAH [3] = molecular target: T1, Arg261Gln (R261Q) PAH; test: Phenylalanine hydroxylase enzyme activity assay in transfected COS7 cells; settings: compound 10 μM (sepiapterin 5 μM), 48 h
Description: (§6) 2. Phenylalanine Hydroxylase Enzyme Activity Assay
(§7) This assay was completed in cell culture to analyze the enzyme activity in the presence of compounds. In brief, wild-type or Arg261Gln PAH constructs were transiently expressed in COS7-cells in a 96 well format reflecting the PAH genotype (COS7 cell line has no endogenous PAH). Cells were treated with the compounds at a final concentration of 10 μM and the enzyme activity of PAH was analyzed 48 h after transfection. The effect of the compounds on the residual enzyme activity was determined in comparison to non-treated cells (NCC, only compound solvent final 0.1%). To normalize the cellular background signal non transfected cells (NT control) were treated with compound or solvent equally for 48 h. As a positive control we used sepiapterin, a stable precursor of BH4 (CAS 17094-01-8), stabilized in 100 mM DTT, in a final concentration of 5 μM.
(§8) PAH activities were assayed at 25° C. as previously described (Gersting, S. W., J. Biol. Chem., 2010, 285(40), 30686-30697) with modifications. The standard mixture contained 22.35 mM NaHepes, pH 7.0, […] catalase, 10 μM ferrous ammonium sulphate, and 1 mM L-Phe (L-phenylalanine) final. Assay mixture and cell culture enzyme were pre-incubated for 5 min and the reaction was initiated by the addition of 75 μM BH4 (stabilized in 100 mM dithiothreitol) final, run for 60 min and stopped by acetic acid. The amount of L-tyrosine production was measured and quantified by HPLC, assayed as triplicates.
(§9) The effect of compound on PAH enzyme activity was calculated from triplicates as follows: first the background of the NT cells were subtracted from the transfected cells (treated or NCC) and then the percentage of treated (compound) versus NCC was determined. Enzyme activity greater than 100% represents an increase in the enzyme activity with respect to NCC.

wild-type PAH [4] = molecular target: T2, wild-type PAH; test: as above; settings: compound 10 μM (sepiapterin 5 μM), 48 h
Description: as §6, §7, §8, §9

T1 sequence (P00439 whole entry R261Q): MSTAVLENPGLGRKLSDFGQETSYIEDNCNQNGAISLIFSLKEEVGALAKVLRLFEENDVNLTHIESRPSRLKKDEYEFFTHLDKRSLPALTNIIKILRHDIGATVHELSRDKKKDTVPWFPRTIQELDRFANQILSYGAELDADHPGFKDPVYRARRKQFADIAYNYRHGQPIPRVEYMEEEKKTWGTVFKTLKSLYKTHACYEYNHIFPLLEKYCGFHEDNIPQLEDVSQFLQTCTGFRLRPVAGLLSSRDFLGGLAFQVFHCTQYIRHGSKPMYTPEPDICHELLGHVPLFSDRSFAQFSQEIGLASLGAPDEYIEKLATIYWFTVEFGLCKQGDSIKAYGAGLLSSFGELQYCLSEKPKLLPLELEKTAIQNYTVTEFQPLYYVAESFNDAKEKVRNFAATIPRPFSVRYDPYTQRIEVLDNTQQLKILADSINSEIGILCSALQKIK
T2 sequence (P00439 whole entry): as the sequence (P00439 whole entry R261Q) above, with Q261R counted along it

Q: How did the PAH protein level (% of control) at 10 µM (Arg261Gln (R261Q) PAH [1]) turn out when `Cc1ccc2[nH]c(N)nc(=O)c2c1Sc1ccncc1` [Nolatrexed 2HCl, 2-amino-6-methyl-5-(4-pyridylthio)-4(3H)-quinazolinone] was run?
A: Its PAH protein level (% of control) at 10 µM is 256%.

Q: What about the PAH protein level (% of control) at 10 µM (wild-type PAH [2]) of the same molecule?
A: The PAH protein level (% of control) at 10 µM was 108%.

Q: And the “PAH enzyme activity (L-Tyrosine formation) R261Q PAH Mean” value (Arg261Gln (R261Q) PAH [3])?
A: The value was 531.60 % NCC.

Q: And the “PAH enzyme activity (L-Tyrosine formation) WT PAH Mean” value (wild-type PAH [4])?
A: Its value is 284.15 % NCC.

Q: How did the “PAH enzyme activity (L-Tyrosine formation) R261Q PAH Mean” value (Arg261Gln (R261Q) PAH [3]) turn out when `CCN1CCCC1CNC(=O)c1cc(S(=O)(=O)CC)ccc1OC` (stereo not drawn) [Sultopride HCl, N-[(1-ethyl-2-pyrrolidinyl)methyl]-5-(ethylsulfonyl)-o-anisamide] was run?
A: Its value is 131.23 % NCC.

Q: What about the “PAH enzyme activity (L-Tyrosine formation) WT PAH Mean” value (wild-type PAH [4]) of the same molecule?
A: The value was 104.71 % NCC.

Q: For `C[C@H](O)C(=O)C1=Nc2c([nH]c(N)nc2=O)NC1` [Sepiapterin, S-(−)-2-amino-7,8-dihydro-6-(2-hydroxy-1-oxopropyl)-4(1H)-pteridinone], which PAH protein level (% of control) at 10 µM (wild-type PAH [2]) is on record?
A: The PAH protein level (% of control) at 10 µM was 106%.

Q: And the “PAH enzyme activity (L-Tyrosine formation) R261Q PAH Mean” value (Arg261Gln (R261Q) PAH [3])?
A: The value was 2089.79 % NCC.

Q: And the “PAH enzyme activity (L-Tyrosine formation) WT PAH Mean” value (wild-type PAH [4])?
A: The value was 297.14 % NCC.
